The text below walks through data of patent US10864188B2, “Anti-microbial composition” (SEPTEOS, priority 2010, dated 2020).

The subject of data set [1] is Other Gram - rods. In words: MIC of pure components in Mueller Hinton gelose. The data set is classed as cell-based. Set-up: unit not given beside the values. The conditions noted are these: Other Gram - rods n = 15.
Data set [2] has as its system Staphylococcus And Enterococcus. The data set can be described thus: MIC of pure components in Mueller Hinton gelose. It counts as cell-based. Also on record: MIC 50 / MIC 90: unit not given beside the values. The conditions noted are these: Staphylococcus And Enterococcus n = 14; for MIC Range: in µg/mL.
In data set [3] the test system is Enterobacteriaceae. The data set can be described thus: MIC of pure components in Mueller Hinton gelose. The data set is classed as cell-based. Also on record: unit not given beside the values. As to conditions: Enterobacteriaceae n = 13.
Data set [4] deals with MRSA. The conditions noted are these: cited from earlier work.

For the molecule `O=C(OCc1ccccc1)c1ccccc1` [Benzyl benzoate, benzyl benzoate], in data set [1], the “MIC Range” value is listed as more than 10000.

For `C=C1CC/C=C(\C)CC[C@@H]2[C@@H]1CC2(C)C` [Caryophyllene, beta-caryophyllene], in data set [2], the “MIC 50” value was more than 10000 and the “MIC 90” value is more than 10000. Further, in data set [1], the “MIC 50” value is reported as more than 10000, the “MIC 90” value is reported as more than 10000 and the “MIC Range” value was more than 10000. Moreover, in data set [3], the “MIC 50” value is listed as more than 10000, the “MIC 90” value was more than 10000 and the “MIC Range” value was more than 10000.

In the case of `CC12CCC(CC1)C(C)(C)O2` [Cineole, cineole], the “MIC Range” value in data set [1] is listed as more than 10000.

Consider `O=C/C=C/c1ccccc1` [Cinnamaldehyde, trans-cinnamaldehyde], for which the figures for the “MIC Range” value in data set [2], in data set [1] (in µg/mL) and in data set [3] (in µg/mL) were 150-300, 150-1250 and 150-600, respectively. Moreover, the “MIC 50” value in data set [1] is 600. Moreover, the “MIC 90” value in data set [1] stood at 1250. In data set [4], the “bibliographic kinetic data on the main compound” value is reported as 1.7 h.

For `CC(=O)OCC=Cc1ccccc1` [Cinnamyl acetate, cinnamyl acetate], the “MIC Range” value in data set [2] is 5000-10000. In data set [1], the “MIC 50” value is more than 10000 and the “MIC 90” value is recorded as more than 10000.

On to `C=CC(C)(O)CCC=C(C)C` (stereo not shown) [Linalool, linalool], for which the “MIC Range” value in data set [2] was 2500-10000. Further, in data set [1], the “MIC 50” value is listed as more than 10000 and the “MIC 90” value is given as more than 10000.
